# Results: PMC3608883 (Clinical Drug Investigation, 2013)
# “And” between values parts separate entries of the source, which are not always exact repeats. Equal values may be shown once.
# Experiments:
# [1] = Treatment-emergent adverse events; format: in vivo, human
# Vital signs = format: in vivo, human; details: single treatment (LDX alone Arm A; VXR alone Arm B)
# [2] = tested on: cytochrome P450 (CYP) isoenzyme; details: any CYP isoenzyme tested to date; cited from earlier work
# [3] = Plasma pharmacokinetics of LDX, d-amphetamine, VEN and ODV; details: mean (SD), day 15
# Bioequivalence test = details: for AUCτ test/reference ratio [90 % CI] / Cmax test/reference ratio [90 % CI]: LDX + VXR Day 30 vs VXR alone Day 15, Treatment Arm B; for AUC / Cmax: human, in vivo
# CYP2D6 [4] = details: cited from earlier work
# CYP2D6 [5] = test: In vivo CYP2D6 interaction, VXR as CYP2D6 substrate coadministered with LDX; details: inferred from VEN increase and ODV decrease with LDX + VXR coadministration
# [6] = treatment arms combined, LDX alone n = 40 and VXR alone n = 37 during dose titration periods, LDX + VXR n = 67
smiles,measurement,setting,value
"CS(=O)(=O)O.CS(=O)(=O)O.C[C@@H](Cc1ccccc1)NC(=O)[C@@H](N)CCCCN [LDX, Lisdexamfetamine dimesylate]",Time to resolution of serious AE (presyncope),"[1]; one participant, LDX 30 mg/day",≤ 10 min
same,Any TEAE,[1]; [6],33 (82.5) n (%)
same,TEAE Anorexia,[1]; [6],12 (30.0) n (%)
same,TEAE Anxiety,[1]; [6],5 (12.5) n (%)
same,TEAE Back pain,[1]; [6],2 (5.0) n (%)
same,TEAE Chest pain,[1]; [6],3 (7.5) n (%)
same,TEAE Constipation,[1]; [6],3 (7.5) n (%)
same,TEAE Diarrhoea,[1]; [6],2 (5.0) n (%)
same,TEAE Dizziness,[1]; [6],3 (7.5) n (%)
same,TEAE Dry mouth,[1]; [6],10 (25.0) n (%)
same,TEAE Dyspnoea,[1]; [6],2 (5.0) n (%)
same,TEAE Epistaxis,[1]; [6],0 (0.0) n (%)
same,TEAE Euphoric mood,[1]; [6],3 (7.5) n (%)
same,TEAE Headache,[1]; [6],7 (17.5) n (%)
same,TEAE Insomnia,[1]; [6],7 (17.5) n (%)
same,TEAE Libido decreased,[1]; [6],0 (0.0) n (%)
same,TEAE Nausea,[1]; [6],6 (15.0) n (%)
same,TEAE Palpitations,[1]; [6],8 (20.0) n (%)
same,TEAE Somnolence,[1]; [6],7 (17.5) n (%)
same,TEAE Stomach discomfort,[1]; [6],2 (5.0) n (%)
same,TEAE Testicular pain,[1]; [6],0 (0.0) n (%)
same,TEAE Urinary hesitation,[1]; [6],0 (0.0) n (%)
same,TEAE Vision blurred,[1]; [6],2 (5.0) n (%)
same,Maximum mean increase in DBP,Vital signs,~6 mmHg
same,Maximum mean increase in SBP,Vital signs,~7 mmHg
same,Maximum mean increase in pulse rate,Vital signs,approximately 13 beats/min
same,Inhibition of CYP isoenzymes,[2],does not inhibit
same,AUCτ,[3]; after LDX alone 70 mg/day,65.5 (44.0) ng·h/mL
same,Cmax,[3]; after LDX alone 70 mg/day,49.1 (32.25) ng/mL
same,tmax,[3]; after LDX alone 70 mg/day,1.1 (0.3) h
same,t½,[3]; after LDX alone 70 mg/day,0.4 (0.1) h
"COc1ccc(C(CN(C)C)C2(O)CCCCC2)cc1 (centres unmarked) [VEN, Venlafaxine]",AUCτ test/reference ratio [90 % CI],Bioequivalence test,"1.13 [0.88, 1.45] and 1.129 [0.88, 1.45]"
same,Cmax test/reference ratio [90 % CI],Bioequivalence test,"1.10 [0.88, 1.38] and 1.103 [0.881, 1.38]"
same,Geometric least squares mean Cmax,"Bioequivalence test; VXR alone, Day 15, Treatment Arm B",180.7 ng/mL
same,AUC,Bioequivalence test; 225 mg/day,2410 ng·h/mL
same,tmax,[3]; after VXR alone 225 mg/day,6.4 (0.8) h
"CN(C)CC(c1ccc(O)cc1)C1(O)CCCCC1 (centres unmarked) [ODV, O-desmethylvenlafaxine]",AUCτ test/reference ratio [90 % CI],Bioequivalence test,"0.83 [0.71, 0.96] and 0.826 [0.713, 0.956]"
same,Cmax test/reference ratio [90 % CI],Bioequivalence test,"0.907 [0.777, 1.058]"
same,AUC,Bioequivalence test; 225 mg/day,8080 ng·h/mL
same,Cmax,Bioequivalence test; 225 mg/day,392 ng/mL
"C[C@H](N)Cc1ccccc1 [d-Amphetamine, dextroamphetamine]",Inhibition of CYP2D6 activity,CYP2D6 [4],weakly inhibits
same,"Inhibition of CYP2D6 activity, from current pharmacokinetic findings",CYP2D6 [5],weak inhibitor
same,AUC,Bioequivalence test; 70 mg/day,1110 ng·h/mL
same,Cmax,Bioequivalence test; 70 mg/day,85.9 ng/mL
